Each compound was assayed against Carbonic anhydrase 2 (Bos taurus, UniProt P00921) (assay: Carbonic Anhydrase (CA) II Inhibition Assay). Details: pH 7.2.
Method: This was assay performed using buffer containing Tris and HEPES at the pH of 7.2-7.9 and a total concentration of 20 mM. 96-well plates were filled with 140 µL of Tris-HEPES solution, 20 µL of bovine erythrocyte carbonic anhydrase II solution (0.1-0.2 mg/2000 mL), and 20 µL of 0.7 mM para-nitrophenyl acetate (diluted in ethanol). Test compounds were incubated at 25-28 °C for 15 min prior to addition of para-nitrophenyl acetate, which starts the reaction. The reaction was allowed to take place for 30 min at 25-28 °C. All compounds tested in triplicate at different concentration. Amount of product that forms during the reaction monitored at 400 nm after 30 min.

Sequence of Carbonic anhydrase 2 (P00921 whole entry): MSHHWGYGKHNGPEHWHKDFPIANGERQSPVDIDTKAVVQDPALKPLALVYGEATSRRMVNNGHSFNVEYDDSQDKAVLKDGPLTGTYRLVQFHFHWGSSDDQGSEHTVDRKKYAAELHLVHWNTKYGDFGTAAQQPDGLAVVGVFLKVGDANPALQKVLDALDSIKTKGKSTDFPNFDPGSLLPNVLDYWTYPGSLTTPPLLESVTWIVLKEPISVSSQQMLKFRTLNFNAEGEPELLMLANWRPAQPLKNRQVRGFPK

S=C(Nc1ccc(C(c2c[nH]c3ccccc23)c2c[nH]c3ccccc23)cc1)Nc1cccc(Br)c1 was tested. Which IC50 did it give?
The IC50 was 131 µM.

Cc1cccc2c(C(c3ccc(NC(=S)Nc4ccc([N+](=O)[O-])cc4)cc3)c3c[nH]c4c(C)cccc34)c[nH]c12 [1-(4-(Bis(7-methyl-1H-indol-3-yl)methyl)phenyl)-3-(4-nitrophenyl)thiourea (3u)] was tested. Which IC50 did it give?
The IC50 was 44.1 µM.

Which IC50 does the source give for O=[N+]([O-])c1ccc(NC(=S)Nc2cccc(C(c3c[nH]c4ccccc34)c3c[nH]c4ccccc34)c2)cc1 [1-(4-Nitrophenyl)-3-(3-(di(1H-indol-3-yl)methyl)phenyl)thiourea (4d)] here?
Its IC50 is 32.9 µM.

CCOC(=O)NC(=S)Nc1ccc(C(c2c[nH]c3ccc(Br)cc23)c2c[nH]c3ccc(Br)cc23)cc1 [Name not given] was tested. Which IC50 did it give?
The IC50 was 70.4 µM.

For CCOC(=O)NC(=S)Nc1ccc(C(c2c[nH]c3ccc(Cl)cc23)c2c[nH]c3ccc(Cl)cc23)cc1 [Name not given], which IC50 is on record?
The IC50 was 137 µM.

For O=[N+]([O-])c1ccc(NC(=S)Nc2ccc(C(c3c[nH]c4ccc(Br)cc34)c3c[nH]c4ccc(Br)cc34)cc2)cc1 [Name not given], which IC50 is on record?
The IC50 was 32.3 µM.

With O=[N+]([O-])c1ccc(NC(=S)Nc2ccc(C(c3c[nH]c4ccc(Cl)cc34)c3c[nH]c4ccc(Cl)cc34)cc2)cc1 [Name not given] as the compound, how does the IC50 read?
The IC50 was 39.7 µM.

For O=[N+]([O-])c1ccc(NC(=S)Nc2ccc(C(c3c[nH]c4ccccc34)c3c[nH]c4ccccc34)cc2)cc1 [Name not given], which IC50 is on record?
Its IC50 is 45.9 µM.

With S=C(Nc1ccc(C(c2c[nH]c3ccc(Br)cc23)c2c[nH]c3ccc(Br)cc23)cc1)Nc1cc(Cl)ccc1Cl [Name not given] as the compound, how does the IC50 read?
The IC50 was 33 µM.

For S=C(Nc1ccc(C(c2c[nH]c3ccc(Br)cc23)c2c[nH]c3ccc(Br)cc23)cc1)Nc1cccc(Br)c1 [Name not given], which IC50 is on record?
Its IC50 is 30.1 µM.

How did the IC50 turn out when S=C(Nc1ccc(C(c2c[nH]c3ccc(Br)cc23)c2c[nH]c3ccc(Br)cc23)cc1)Nc1cccc(Cl)c1 [Name not given] was run?
The IC50 was 42.9 µM.

With S=C(Nc1ccc(C(c2c[nH]c3ccc(Cl)cc23)c2c[nH]c3ccc(Cl)cc23)cc1)Nc1cc(Cl)ccc1Cl [Name not given] as the compound, how does the IC50 read?
The IC50 was 139 µM.

For S=C(Nc1ccc(C(c2c[nH]c3ccc(Cl)cc23)c2c[nH]c3ccc(Cl)cc23)cc1)Nc1cccc(Cl)c1 [Name not given], which IC50 is on record?
Its IC50 is 54.4 µM.

Which IC50 does the source give for S=C(Nc1ccc(C(c2c[nH]c3ccccc23)c2c[nH]c3ccccc23)cc1)Nc1cc(Cl)ccc1Cl [Name not given] here?
Its IC50 is 68.3 µM.

Which IC50 does the source give for S=C(Nc1ccc(C(c2c[nH]c3ccccc23)c2c[nH]c3ccccc23)cc1)Nc1cccc(Cl)c1 [Name not given] here?
Its IC50 is 112 µM.

From BindingDB's records for doi:10.1016/j.bioorg.2015.08.001 (Universiti Teknologi Mara (Uitm), 2015)
